Holding throughout (assay): NCI-60 cell line screen, 48 h
In test [1] the test system is IGROV1 ovarian.
Test [2] relates to SNB-78 CNS.
For test [3], the system named is HOP-18 NSCLC.
The subject of test [4] is A549 NSCLC.
Test [5] concerns ACHN renal.
The subject of test [6] is HCT-116 colon.
Test [7] relates to DMS 114 small cell lung.
Test [8] has as its system COLO 205 colon.
Test [9] has as its system NCI-H226 lung.
In test [10] the test system is HOP-92 NSCLC.

“And” between values parts separate entries of the source, which are not always exact repeats. Identical values can stand only once.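 Tested at 5 concentrations; 48 h exposure; 96-well plates; endpoints linearly interpolated, else capped at highest concentration. GI50 marks 50% less growth. At the TGI there is no net growth.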

In the case of `CCCC1C(=O)CCc2c(OC)ccc(OC)c21` (configuration not stated), the TGI in test [1], in [2], in [3], in test [4], in [5] and in [6] was more than 100 µM each time. Moreover, the TGI in test [7] and in [8] was more than 100 µM throughout.

Consider `COC(=O)C1(C(C)C)CCc2c(OC)ccc(OC)c2C1=O` (configuration not stated), for which the TGI in [1], in test [2], in [3], in test [4], in test [5] and in test [6] was more than 100 µM in each case. In addition, the TGI in test [7] and in [8] was more than 100 µM each time.

`Cc1cc(N(CCC#N)CCC#N)ccc1N=Nc1ccc(S(N)(=O)=O)cc1`: the TGI in test [1], in [2], in test [3], in test [4], in test [5] and in test [7] was more than 100 µM throughout. The TGI in test [8] and in [9] was more than 100 µM throughout.

On to `CCOC(=O)C(C)(C)Oc1ccc2c(-c3ccccc3)cc(=O)oc2c1`, for which the TGI in test [1] is more than 100 µM; in test [4] it was more than 100 µM; in [5] it was more than 100 µM; in test [6] it was more than 100 µM; in [7], 64.1 µM; in test [8] it was 42.7 µM. In addition, the TGI in test [9] was 87.4 µM.

On to `CN1CCCCC1CCN1c2ccccc2Sc2ccc(Cl)cc21` (configuration not stated), for which the GI50 in test [1] was 3.24 µM; in test [4], 3.31 µM; in test [5], 3.3 µM; in test [6], 2.57 µM; in [10] it was 1.35 µM; in test [8] it was 2.24 µM. Also, in test [9], the GI50 was 12.9 µM. Also, the TGI was 10.6 µM in test [1]; 11.8 µM in test [4]; 12.9 µM in [5]; 6.72 µM in test [6]; 5.18 µM in test [10]; 4.83 µM in test [8]. Moreover, the TGI in test [9] amounted to 32.1 µM.

As to `COC(=O)CC[N+]1=CCC(c2ccccc2)(c2ccccc2)O1`, the TGI in test [1], in [4], in test [5], in test [6], in test [10] and in test [8] was more than 100 µM throughout. For the same compound, the TGI in test [9] is more than 100 µM.

With `CCOC1Oc2ccccc2C(=O)/C1=C/Nc1ccc(C(C)=O)cc1` (configuration not stated), the GI50 was 19.5 µM in [1]; 50.3 µM in [4]; 18.6 µM in test [5]; 22.8 µM in test [6]; 25.6 µM in test [10]; 55.2 µM in test [8]. Also, the GI50 in test [9] is 26.7 µM. For the same compound, the TGI in [1] was more than 100 µM; in test [4] it was more than 100 µM; in test [5], 44 µM; in test [6], more than 100 µM; in test [10], more than 100 µM; in [8] it was more than 100 µM. The compound further came in with a TGI in [9] of 68.1 µM.

For the compound `CN(C)C(=S)N=C(Nc1ccccc1)Nc1ccccc1`, the TGI in test [1], in [2], in test [4], in test [5], in [6] and in test [10] was more than 100 µM each time. In addition, the TGI in test [7], in test [8] and in test [9] was more than 100 µM each time.

With `Cc1ccc2c(C)c3c(ccc4ccccc43)c[n+]2c1`, the GI50 was 9.28 µM in [1]; 3.85 µM in [4]; 29.6 µM in test [5]; 17.3 µM in test [6]; 6.28 µM in test [10]; 11 µM in test [8]. The GI50 in test [9] was 21.1 µM. In addition, the TGI in test [1] is 80.1 µM; in test [4], more than 100 µM; in test [5], more than 100 µM; in test [6], 78.7 µM; in test [10], 35.2 µM; in test [8], 24.7 µM. For the same compound, in [9], the TGI is more than 100 µM.

On to `Cc1cc(NS(=O)(=O)c2ccc(Nc3c4ccccc4nc4c(C(=O)N5CCN(CCOS(C)(=O)=O)CC5)cccc34)cc2)no1`, for which the TGI in test [1], in test [2], in test [4], in test [5], in [6] and in test [10] was more than 100 µM each time. Also, the TGI in test [7], in [8] and in test [9] was more than 100 µM each time.

With `C[C@@H](Oc1cc(-n2cnc3ccc(CN4CCN(C)CC4)cc32)sc1C(N)=O)c1ccccc1C(F)(F)F`, the GI50 in [1] is 0.0621 µM and 0.0336 µM; in test [4] it was 0.0211 µM and 0.0306 µM; in test [5], 0.442 µM and 0.156 µM; in test [6] it was < 0.0125 µM and 0.0139 µM; in test [10] it was 0.0342 µM and 0.191 µM; in test [8], < 0.01 µM and 0.00424 µM. Further, the TGI in test [1] is 15.1 µM and > 10 µM; in test [4], 10.8 µM and > 10 µM; in test [5], 15.8 µM and > 10 µM; in test [6], 12.9 µM and > 10 µM; in [10], 0.947 µM and > 3.14 µM; in test [8], 0.699 µM. Besides, the TGI in test [9] was 19 µM and > 10 µM.

For `Nc1c(C(=O)c2cccc(CCS(N)(=O)=O)c2)cnn1-c1ccc(F)cc1`, the GI50 in [1], in [4], in [5], in test [6], in test [10] and in [8] was more than 25 µM in each case. Moreover, in [9], the GI50 was more than 19.7 µM. Also, the TGI in test [1], in test [4], in test [5], in test [6], in test [10] and in test [8] was more than 25 µM throughout. Moreover, the TGI in test [9] was more than 25 µM.

`Cc1nc2c(ccc3ncccc32)[nH]1`: the TGI in test [1], in test [3], in test [4], in test [5], in test [10] and in [7] was more than 100 µM throughout. Besides, the TGI in test [8] is more than 100 µM.

For the origin of these results see PubChem BioAssay (NCI).
